Reference: patent publication US12018021B2 (UCB Biopharma SRL, priority 2018, dated 2024)
pIC50: −log10 of the molar value.

Target: IgE-Tb / sFcεRIα-Y131A-AF488 (Homo sapiens, UniProt P01854, N146Q/N252Q)
Assay: IgE-Tb / sFcεRIα-Y131A-AF488 FRET assay (protocol for examples 234 to 501)
Format: binding
Conditions: examples 234 to 501: compound with IgE-Tb 30 minutes before sFcεRIα-Y131A-AF488, incubated 18 hours at room temperature; read-out: Y131A FRET IC50 range
Protocol: For examples 234 to 501, the assay was conducted according to the following: Each assay reaction was conducted in a volume of 25 μl in a 384-well half-volume plate. 10 point compound serial dilutions (3-fold) were generated in DMSO at a concentration of ×50 that of the final assay concentration (FAC). Compound solutions were then prepared by diluting 10-fold in assay buffer. For the assay, 5l of diluted compound was added to 10 μl of IgE-Tb and incubated for 30 minutes before the addition of 10 μ[…]. FRET reagents FACs were 5 nM IgE-Tb, 25 nM […]. Usually the top FAC of compound in the assay was 10 μM. The final DMSO concentration was 2%. […] The maximum FRET signal (MAX) was measured in wells containing FRET reagents but no compound. The assay was incubated for 18 hours at room temperature, protected from light and evaporation, and with gentle agitation. Measurement of FRET for each well was carried out by exciting at 337 nm and measuring emission at 490/520 nm using a PHERAstar FSX plate reader (BMG Labtech). FRET ratio was calculated as follows: Emission at 520/7Emission at 490×1000. The FRET ratio was used for the data analysis. […] Z' above 0.5 was considered a good assay. Background signal (MIN) was subtracted from all wells. […] Percent inhibition was plotted against compound concentration. IC50 values for each compound were determined using four parameter logistic fit model using the XLFIT5 software package.

IgE-Tb / sFcεRIα-Y131A-AF488, sequence (P01854 whole entry N146Q/N252Q): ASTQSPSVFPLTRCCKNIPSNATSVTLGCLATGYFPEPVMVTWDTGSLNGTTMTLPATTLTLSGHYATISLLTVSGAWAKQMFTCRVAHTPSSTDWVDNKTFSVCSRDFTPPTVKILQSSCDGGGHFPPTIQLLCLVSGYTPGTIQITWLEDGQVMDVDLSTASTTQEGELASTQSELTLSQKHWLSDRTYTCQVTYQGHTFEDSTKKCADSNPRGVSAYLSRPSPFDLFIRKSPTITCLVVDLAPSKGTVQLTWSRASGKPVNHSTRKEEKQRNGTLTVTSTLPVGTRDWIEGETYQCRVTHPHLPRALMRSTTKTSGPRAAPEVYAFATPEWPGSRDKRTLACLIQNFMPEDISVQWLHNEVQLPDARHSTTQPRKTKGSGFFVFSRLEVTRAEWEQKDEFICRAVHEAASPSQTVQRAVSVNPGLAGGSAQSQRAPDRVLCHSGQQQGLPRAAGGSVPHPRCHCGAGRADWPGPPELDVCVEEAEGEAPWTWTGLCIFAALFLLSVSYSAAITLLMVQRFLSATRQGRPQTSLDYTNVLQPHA

Cc1c(Nc2nncn2[C@H]2CCc3sc(NC(=O)C4CC4)c(C(=O)NCC4CC4)c3C2)cccc1S(C)(=N)=O (mixture of isomers) [Example 235, (5S)-2-cyclopropaneamido-N-(cyclopropylmethyl)-5-[3-({3-[imino(methyl)oxo-lambda6-sulfanyl]-2-methylphenyl}amino)-4H-1,2,4-triazol-4-yl]-4,5,6,7-tetrahydro-1-benzothiophene-3-carboxamide]
pIC50: > 6.00

CC(=O)N1CCC(C)(Nc2nncn2[C@H]2CCc3sc(NC(=O)C4CC4)c(C(=O)NCC4CC4)c3C2)C1 (mixture of isomers) [Example 238, (5S)-5-{3-[(1-acetyl-3-methylpyrrolidin-3-yl)amino]-4H-1,2,4-triazol-4-yl}-2-cyclopropaneamido-N-(cyclopropylmethyl)-4,5,6,7-tetrahydro-1-benzothiophene-3-carboxamide]
pIC50: > 6.00

CS(=N)(=O)c1cccc(Nc2nncn2[C@H]2CCc3sc(NC(=O)C4CC4)c(C(=O)NCC4CC4)c3C2)c1 (mixture of isomers) [Example 252, (5S)-2-(cyclopropanecarbonylamino)-N-(cyclopropylmethyl)-5-[3-[3-(methylsulfonimidoyl)anilino]-1,2,4-triazol-4-yl]-4,5,6,7-tetrahydrobenzothiophene-3-carboxamide]
pIC50: > 6.00

Cc1ccc(C2CC(Nc3nncn3[C@H]3CCc4sc(NC(=O)C5CC5)c(C(=O)NCC5CC5)c4C3)C2)cn1 (mixture of isomers) [Example 275, (5S)-2-(cyclopropanecarbonylamino)-N-(cyclopropylmethyl)-5-[3-[[3-(6-methyl-3-pyridyl)cyclobutyl]amino]-1,2,4-triazol-4-yl]-4,5,6,7-tetrahydrobenzothiophene-3-carboxamide]
pIC50: > 6.00

Cn1nc(OC(F)F)cc1Nc1nncn1[C@H]1CCc2sc(NC(=O)C3CC3(F)F)c(C(=O)NCC3CC3)c2C1 (mixture of isomers) [Example 344, (5S)—N-(cyclopropylmethyl)-2-[(2,2-difluorocyclopropanecarbonyl)amino]-5-[3-[[5-(difluoromethoxy)-2-methylpyrazol-3-yl]amino]-1,2,4-triazol-4-yl]-4,5,6,7-tetrahydro-1-benzothiophene-3-carboxamide]
pIC50: > 6.00

Cn1nc(OC(F)F)cc1Nc1nncn1[C@H]1CCc2sc(NC(=O)[C@H]3C[C@H]3F)c(C(=O)NCC3CC3)c2C1 (mixture of isomers) [Example 348, (5S)—N-(cyclopropylmethyl)-5-[3-[[5-(difluoromethoxy)-2-methylpyrazol-3-yl]amino]-1,2,4-triazol-4-yl]-2-[[(1RS,2RS)-2-fluorocyclopropanecarbonyl]amino]-4,5,6,7-tetrahydro-1-benzothiophene-3-carboxamide]
pIC50: > 6.00

Cn1nc(C(F)(F)F)cc1Nc1nncn1[C@H]1CCc2sc(NC(=O)[C@H]3C[C@H]3F)c(C(=O)NCC3CC3)c2C1 (mixture of isomers) [Example 355, (5S)—N-(cyclopropylmethyl)-2-[[(1RS,2RS)-2-fluorocyclopropanecarbonyl]amino]-5-[3-[[2-methyl-5-(trifluoromethyl)pyrazol-3-yl]amino]-1,2,4-triazol-4-yl]-4,5,6,7-tetrahydro-1-benzothiophene-3-carboxamide]
pIC50: > 6.00

Cn1nc(C(F)F)cc1Nc1nncn1[C@H]1CCc2sc(NC(=O)[C@H]3C[C@H]3F)c(C(=O)NCC3CC3)c2C1 (mixture of isomers) [Example 361, (5S)—N-(cyclopropylmethyl)-5-[3-[[5-(difluoromethyl)-2-methylpyrazol-3-yl]amino]-1,2,4-triazol-4-yl]-2-[[(1RS,2RS)-2-fluorocyclopropanecarbonyl]amino]-4,5,6,7-tetrahydro-1-benzothiophene-3-carboxamide]
pIC50: > 6.00

Cn1nc(C(F)F)cc1Nc1nncn1[C@H]1CCc2sc(NC(=O)C3CC3(F)F)c(C(=O)NCC3CC3)c2C1 (mixture of isomers) [Example 364, (5S)—N-(cyclopropylmethyl)-2-[(2,2-difluorocyclopropanecarbonyl)amino]-5-[3-[[5-(difluoromethyl)-2-methylpyrazol-3-yl]amino]-1,2,4-triazol-4-yl]-4,5,6,7-tetrahydro-1-benzothiophene-3-carboxamide]
pIC50: > 6.00

CC1CC1C(=O)Nc1sc2c(c1C(=O)NCC1CC1)C[C@@H](n1cnnc1Nc1cc(C(F)F)nn1C)CC2 (mixture of isomers) [Example 369, (5S)—N-(cyclopropylmethyl)-5-[3-[[5-(difluoromethyl)-2-methylpyrazol-3-yl]amino]-1,2,4-triazol-4-yl]-2-[(2-methylcyclopropanecarbonyl)amino]-4,5,6,7-tetrahydro-1-benzothiophene-3-carboxamide]
pIC50: > 6.00

Cn1nc(C(F)F)cc1Nc1nncn1[C@H]1CCc2sc(NC(=O)C3CC3)c(C(=O)NCC3CC3(F)F)c2C1 (mixture of isomers) [Example 381, (5S)-2-(cyclopropanecarbonylamino)-N-[(2,2-difluorocyclopropyl)methyl]-5-[3-[[5-(difluoromethyl)-2-methylpyrazol-3-yl]amino]-1,2,4-triazol-4-yl]-4,5,6,7-tetrahydro-1-benzothiophene-3-carboxamide]
pIC50: > 6.00

Cn1nc(C(F)F)cc1Nc1nncn1[C@H]1CCc2sc(NC(=O)C3CC3)c(C(=O)NCC3CC34CC4)c2C1 (mixture of isomers) [Example 384, (5S)-2-(cyclopropanecarbonylamino)-5-[3-[[5-(difluoromethyl)-2-methylpyrazol-3-yl]amino]-1,2,4-triazol-4-yl]-N-(spiro[2.2]pentan-2-ylmethyl)-4,5,6,7-tetrahydro-1-benzothiophene-3-carboxamide]
pIC50: > 6.00

Cn1nc(C(F)(F)F)cc1Nc1nncn1[C@H]1CCc2sc(NC(=O)[C@H]3C[C@H]3F)c(C(=O)NCC3CC3(F)F)c2C1 (mixture of isomers) [Example 396, (5S)—N-[(2,2-difluorocyclopropyl)methyl]-2-[[(1R,2R)-2-fluorocyclopropanecarbonyl]amino]-5-[3-[[2-methyl-5-(trifluoromethyl)pyrazol-3-yl]amino]-1,2,4-triazol-4-yl]-4,5,6,7-tetrahydro-1-benzothiophene-3-carboxamide]
pIC50: > 6.00

Cn1nc(C(F)(F)F)cc1Nc1nncn1[C@H]1CCc2sc(NC(=O)[C@H]3C[C@H]3F)c(C(=O)NC[C@H]3C[C@H](F)C3)c2C1 (mixture of isomers) [Example 400, (5S)—N-[trans-(3-fluorocyclobutyl)methyl]-2-[[(1R,2R)-2-fluorocyclopropanecarbonyl]amino]-5-[3-[[2-methyl-5-(trifluoromethyl)pyrazol-3-yl]amino]-1,2,4-triazol-4-yl]-4,5,6,7-tetrahydro-1-benzothiophene-3-carboxamide]
pIC50: > 6.00

Cn1nc(C(F)F)cc1Nc1nncn1[C@H]1CCc2sc(NC(=O)[C@H]3CC34CC4)c(C(=O)NCC3CC3(F)F)c2C1 (mixture of isomers) [Example 408, (5S)—N-[(2,2-Difluorocyclopropyl)methyl]-5-[3-[[5-(difluoromethyl)-2-methylpyrazol-3-yl]amino]-1,2,4-triazol-4-yl]-2-[[(2S)-spiro [2.2]pentane-2-carbonyl]amino]-4,5,6,7-tetrahydro-1-benzothiophene-3-carboxamide]
pIC50: > 6.00

Cn1nc(C(F)F)cc1Nc1nncn1[C@H]1CCc2sc(NC(=O)[C@H]3CC34CC4)c(C(=O)NC3CC34CC4)c2C1 (mixture of isomers) [Example 411, (5S)-5-[3-[[5-(Difluoromethyl)-2-methylpyrazol-3-yl]amino]-1,2,4-triazol-4-yl]-2-[[(2S)-spiro[2.2]pentane-2-carbonyl]amino]-N-spiro[2.2]pentan-2-yl-4,5,6,7-tetrahydro-1-benzothiophene-3-carboxamide]
pIC50: > 6.00

CCOC(=O)c1c(NC(=O)C2CC23CC3)sc2c1C[C@@H](n1cnnc1Nc1cc(C(F)F)nn1C)CC2 (mixture of isomers) [Example 417a, Ethyl (5S)-5-[3-[[5-(difluoromethyl)-2-methyl-pyrazol-3-yl]amino]-1,2,4-triazol-4-yl]-2-(spiro[2.2]pentane-2-carbonylamino)-4,5,6,7-tetrahydrobenzothiophene-3-carboxylate]
pIC50: > 6.00

Cn1nc(OC(F)F)cc1Nc1nncn1[C@H]1CCc2sc(NC(=O)C3CC3)c(C(=O)NC3CC34CC4)c2C1 (mixture of isomers) [Example 452, (5S)-2-(cyclopropanecarbonylamino)-5-[3-[[5-(difluoromethoxy)-2-methylpyrazol-3-yl]amino]-1,2,4-triazol-4-yl]-N-spiro[2.2]pentan-2-yl-4,5,6,7-tetrahydro-1-benzothiophene-3-carboxamide]
pIC50: > 6.00

Cn1nc(OC(F)F)cc1Nc1nncn1[C@H]1CCc2sc(NC(=O)C3CC3)c(C(=O)NC[C@H]3C[C@H]3F)c2C1 (mixture of isomers) [Example 454, (5S)-2-(cyclopropanecarbonylamino)-5-[3-[[5-(difluoromethoxy)-2-methylpyrazol-3-yl]amino]-1,2,4-triazol-4-yl]-N-[[(1RS,2RS)-2-fluorocyclopropyl]methyl]-4,5,6,7-tetrahydro-1-benzothiophene-3-carboxamide]
pIC50: > 6.00
